From article PMC9737838, “Long-Distance Protonation-Conformation Coupling in Phytochrome Species” (Molecules, 2022) come the findings set out here.

The structures appear in SMILES notation.

This assay has as its target T1, Agp1-PGP (photosensory module PAS-GAF-PHY of Agp1) (Agrobacterium fabrum, UniProt Q7CY45).
T1 construct: gene Atu1990; photosensory module PAS-GAF-PHY, residues 1-504, C-terminal His6 tag; apoprotein from E. coli assembled with biliverdin; plasmids with and without deletion of the first 9 residues used for mutagenesis
T1 sequence (Q7CY45 1-495): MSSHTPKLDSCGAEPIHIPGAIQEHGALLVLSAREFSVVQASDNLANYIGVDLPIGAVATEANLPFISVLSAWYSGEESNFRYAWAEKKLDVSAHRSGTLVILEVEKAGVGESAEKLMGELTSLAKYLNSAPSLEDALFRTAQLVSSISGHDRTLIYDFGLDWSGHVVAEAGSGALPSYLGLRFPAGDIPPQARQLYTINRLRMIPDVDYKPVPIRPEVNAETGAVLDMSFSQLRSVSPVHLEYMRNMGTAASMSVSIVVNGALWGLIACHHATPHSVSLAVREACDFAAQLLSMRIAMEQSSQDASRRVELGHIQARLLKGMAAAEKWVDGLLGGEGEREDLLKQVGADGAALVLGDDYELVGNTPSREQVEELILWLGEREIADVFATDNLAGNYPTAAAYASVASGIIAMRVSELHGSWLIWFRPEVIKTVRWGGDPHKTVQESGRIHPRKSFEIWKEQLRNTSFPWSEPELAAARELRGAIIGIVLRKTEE
Kind of assay: UV-Vis absorption of the assembled holoprotein, pH titration. It is filed as binding. To be noted: covalent, Cys20; Pr state, 702 nm band, 300 mM NaCl, 50 mM Tris, 20 °C.

Turning to `C=CC1=C(C)/C(=C/C2=NC(=C\c3[nH]c(/C=C4\NC(=O)C(C)=C4C=C)c(C)c3CCC(=O)O)/C(CCC(=O)O)=C2C)NC1=O` [BV, biliverdin], the “UV-Vis absorption of the assembled holoprotein, pH titration” value is “The apoprotein was expressed and assembled with BV according to established protocols”.
